# Data reported in the OligoGym collection.
# Oligonucleotides are given in HELM: sugar(base)linkage, 5' to 3'; d 2'-deoxyribose, r ribose, m 2'-O-methylribose, p phosphate. ss, as = sense and antisense strand
# Molecular target: Mmp7 (rat)
# Assay: reporter assay of Huesken 2005
# Conditions: siRNA
# Note: test concentration or dose not given here.
row,Substance,normalised inhibition (eCFP-eYFP dual reporter) [%]
1,RNA1{r(A)p.r(A)p.r(A)p.r(A)p.r(C)p.r(A)p.r(A)p.r(A)p.r(G)p.r(A)p.r(A)p.r(G)p.r(G)p.r(C)p.r(C)p.r(A)p.r(C)p.r(C)p.r(A)p.d(T)p.d(T)}|RNA2{r(U)p.r(G)p.r(G)p.r(U)p.r(G)p.r(G)p.r(C)p.r(C)p.r(U)p.r(U)p.r(C)p.r(U)p.r(U)p.r(U)p.r(G)p.r(U)p.r(U)p.r(U)p.r(U)p.d(A)p.d(G)}$$$RNA1{StrandType:ss}|RNA2{StrandType:as}$,45.7
2,RNA1{r(A)p.r(A)p.r(A)p.r(C)p.r(U)p.r(G)p.r(A)p.r(G)p.r(G)p.r(G)p.r(A)p.r(A)p.r(A)p.r(U)p.r(G)p.r(C)p.r(A)p.r(G)p.r(A)p.d(T)p.d(T)}|RNA2{r(U)p.r(C)p.r(U)p.r(G)p.r(C)p.r(A)p.r(U)p.r(U)p.r(U)p.r(C)p.r(C)p.r(C)p.r(U)p.r(C)p.r(A)p.r(G)p.r(U)p.r(U)p.r(U)p.d(G)p.d(T)}$$$RNA1{StrandType:ss}|RNA2{StrandType:as}$,116
3,RNA1{r(A)p.r(A)p.r(A)p.r(U)p.r(U)p.r(U)p.r(U)p.r(A)p.r(C)p.r(C)p.r(U)p.r(U)p.r(C)p.r(A)p.r(C)p.r(G)p.r(A)p.r(C)p.r(U)p.d(T)p.d(T)}|RNA2{r(A)p.r(G)p.r(U)p.r(C)p.r(G)p.r(U)p.r(G)p.r(A)p.r(A)p.r(G)p.r(G)p.r(U)p.r(A)p.r(A)p.r(A)p.r(A)p.r(U)p.r(U)p.r(U)p.d(C)p.d(C)}$$$RNA1{StrandType:ss}|RNA2{StrandType:as}$,74.4
4,RNA1{r(A)p.r(A)p.r(C)p.r(A)p.r(A)p.r(A)p.r(G)p.r(A)p.r(A)p.r(G)p.r(G)p.r(C)p.r(C)p.r(A)p.r(C)p.r(C)p.r(A)p.r(G)p.r(U)p.d(T)p.d(T)}|RNA2{r(A)p.r(C)p.r(U)p.r(G)p.r(G)p.r(U)p.r(G)p.r(G)p.r(C)p.r(C)p.r(U)p.r(U)p.r(C)p.r(U)p.r(U)p.r(U)p.r(G)p.r(U)p.r(U)p.d(T)p.d(T)}$$$RNA1{StrandType:ss}|RNA2{StrandType:as}$,87.1
5,RNA1{r(A)p.r(A)p.r(C)p.r(U)p.r(U)p.r(C)p.r(C)p.r(C)p.r(A)p.r(U)p.r(U)p.r(U)p.r(G)p.r(A)p.r(U)p.r(G)p.r(G)p.r(G)p.r(C)p.d(T)p.d(T)}|RNA2{r(G)p.r(C)p.r(C)p.r(C)p.r(A)p.r(U)p.r(C)p.r(A)p.r(A)p.r(A)p.r(U)p.r(G)p.r(G)p.r(G)p.r(A)p.r(A)p.r(G)p.r(U)p.r(U)p.d(G)p.d(T)}$$$RNA1{StrandType:ss}|RNA2{StrandType:as}$,0.2
6,RNA1{r(A)p.r(A)p.r(G)p.r(C)p.r(C)p.r(C)p.r(A)p.r(G)p.r(G)p.r(U)p.r(G)p.r(U)p.r(G)p.r(G)p.r(A)p.r(G)p.r(U)p.r(G)p.r(C)p.d(T)p.d(T)}|RNA2{r(G)p.r(C)p.r(A)p.r(C)p.r(U)p.r(C)p.r(C)p.r(A)p.r(C)p.r(A)p.r(C)p.r(C)p.r(U)p.r(G)p.r(G)p.r(G)p.r(C)p.r(U)p.r(U)p.d(C)p.d(T)}$$$RNA1{StrandType:ss}|RNA2{StrandType:as}$,47.5
7,RNA1{r(A)p.r(A)p.r(G)p.r(G)p.r(A)p.r(U)p.r(G)p.r(A)p.r(G)p.r(U)p.r(A)p.r(C)p.r(U)p.r(G)p.r(G)p.r(A)p.r(C)p.r(G)p.r(G)p.d(T)p.d(T)}|RNA2{r(C)p.r(C)p.r(G)p.r(U)p.r(C)p.r(C)p.r(A)p.r(G)p.r(U)p.r(A)p.r(C)p.r(U)p.r(C)p.r(A)p.r(U)p.r(C)p.r(C)p.r(U)p.r(U)p.d(G)p.d(T)}$$$RNA1{StrandType:ss}|RNA2{StrandType:as}$,75.8
8,RNA1{r(A)p.r(A)p.r(G)p.r(G)p.r(C)p.r(C)p.r(A)p.r(C)p.r(C)p.r(A)p.r(G)p.r(U)p.r(G)p.r(C)p.r(A)p.r(G)p.r(U)p.r(G)p.r(G)p.d(T)p.d(T)}|RNA2{r(C)p.r(C)p.r(A)p.r(C)p.r(U)p.r(G)p.r(C)p.r(A)p.r(C)p.r(U)p.r(G)p.r(G)p.r(U)p.r(G)p.r(G)p.r(C)p.r(C)p.r(U)p.r(U)p.d(C)p.d(T)}$$$RNA1{StrandType:ss}|RNA2{StrandType:as}$,22.3
9,RNA1{r(A)p.r(A)p.r(G)p.r(U)p.r(G)p.r(A)p.r(C)p.r(C)p.r(G)p.r(C)p.r(A)p.r(C)p.r(U)p.r(U)p.r(C)p.r(A)p.r(G)p.r(U)p.r(G)p.d(T)p.d(T)}|RNA2{r(C)p.r(A)p.r(C)p.r(U)p.r(G)p.r(A)p.r(A)p.r(G)p.r(U)p.r(G)p.r(C)p.r(G)p.r(G)p.r(U)p.r(C)p.r(A)p.r(C)p.r(U)p.r(U)p.d(C)p.d(T)}$$$RNA1{StrandType:ss}|RNA2{StrandType:as}$,79.7
10,RNA1{r(A)p.r(A)p.r(G)p.r(U)p.r(U)p.r(C)p.r(U)p.r(U)p.r(C)p.r(G)p.r(G)p.r(U)p.r(U)p.r(U)p.r(G)p.r(C)p.r(C)p.r(G)p.r(G)p.d(T)p.d(T)}|RNA2{r(C)p.r(C)p.r(G)p.r(G)p.r(C)p.r(A)p.r(A)p.r(A)p.r(C)p.r(C)p.r(G)p.r(A)p.r(A)p.r(G)p.r(A)p.r(A)p.r(C)p.r(U)p.r(U)p.d(C)p.d(T)}$$$RNA1{StrandType:ss}|RNA2{StrandType:as}$,1.8
11,RNA1{r(A)p.r(A)p.r(U)p.r(G)p.r(C)p.r(A)p.r(G)p.r(A)p.r(A)p.r(G)p.r(C)p.r(C)p.r(C)p.r(A)p.r(G)p.r(G)p.r(U)p.r(G)p.r(U)p.d(T)p.d(T)}|RNA2{r(A)p.r(C)p.r(A)p.r(C)p.r(C)p.r(U)p.r(G)p.r(G)p.r(G)p.r(C)p.r(U)p.r(U)p.r(C)p.r(U)p.r(G)p.r(C)p.r(A)p.r(U)p.r(U)p.d(A)p.d(T)}$$$RNA1{StrandType:ss}|RNA2{StrandType:as}$,86.1
12,RNA1{r(A)p.r(A)p.r(U)p.r(U)p.r(U)p.r(U)p.r(A)p.r(C)p.r(C)p.r(U)p.r(U)p.r(C)p.r(A)p.r(C)p.r(G)p.r(A)p.r(C)p.r(U)p.r(C)p.d(T)p.d(T)}|RNA2{r(G)p.r(A)p.r(G)p.r(U)p.r(C)p.r(G)p.r(U)p.r(G)p.r(A)p.r(A)p.r(G)p.r(G)p.r(U)p.r(A)p.r(A)p.r(A)p.r(A)p.r(U)p.r(U)p.d(T)p.d(C)}$$$RNA1{StrandType:ss}|RNA2{StrandType:as}$,76.1
13,RNA1{r(A)p.r(C)p.r(A)p.r(G)p.r(G)p.r(C)p.r(G)p.r(C)p.r(A)p.r(G)p.r(A)p.r(A)p.r(U)p.r(U)p.r(A)p.r(U)p.r(C)p.r(U)p.r(U)p.d(T)p.d(T)}|RNA2{r(A)p.r(A)p.r(G)p.r(A)p.r(U)p.r(A)p.r(A)p.r(U)p.r(U)p.r(C)p.r(U)p.r(G)p.r(C)p.r(G)p.r(C)p.r(C)p.r(U)p.r(G)p.r(U)p.d(T)p.d(C)}$$$RNA1{StrandType:ss}|RNA2{StrandType:as}$,75.6
14,RNA1{r(A)p.r(C)p.r(A)p.r(G)p.r(U)p.r(C)p.r(C)p.r(U)p.r(A)p.r(A)p.r(G)p.r(U)p.r(G)p.r(G)p.r(C)p.r(A)p.r(U)p.r(U)p.r(C)p.d(T)p.d(T)}|RNA2{r(G)p.r(A)p.r(A)p.r(U)p.r(G)p.r(C)p.r(C)p.r(A)p.r(C)p.r(U)p.r(U)p.r(A)p.r(G)p.r(G)p.r(A)p.r(C)p.r(U)p.r(G)p.r(U)p.d(T)p.d(T)}$$$RNA1{StrandType:ss}|RNA2{StrandType:as}$,65.7
